Data from ChEMBL document CHEMBL4483862, “Open-source discovery of chemical leads for next-generation chemoprotective antimalarials” (2018).

Test system: Plasmodium berghei
Assay: Luciferase/luciferin-expressing antifolate-resistant parasites were used to infect a culture of HepG2 cells that were pre-incubated with compounds. Infected hepatocytes emit light due to the luciferase reaction. Assay results are presented as the percent inhibition of light emission compared to control. […]
Format: functional
Conditions: sporozoite; for IC50: read-out: LUCIFERASE INFECTION ASSAY - IC50; for IC90: read-out: LUCIFERASE INFECTION ASSAY - IC90

## O=C1/C(=C\c2ccncc2)C(c2ccccc2)Oc2ccccc21 (configuration not stated)
  IC50: 9.06 µM
  IC90: 9.96 µM

## CN(C)c1ccc(/C=C(\C#N)c2nc3ccccc3[nH]2)cc1
  IC50: > 11.4 µM
  IC90: > 11.4 µM

## FC(F)(F)Oc1ccc(N=C(S)Nc2ccc(OC(F)(F)F)cc2)cc1
  IC50: > 8.33 µM
  IC90: > 8.33 µM

## S=C(NCc1ccco1)Nc1ccc(Oc2ccc(Cl)cc2)cc1
  IC50: > 9.2 µM
  IC90: > 9.2 µM

## CCCCCCCCCCCCN1C(=O)CSC1c1cccnc1 (configuration not stated)
  IC50: > 9.47 µM
  IC90: > 9.47 µM

## Nc1nc2c(c(C(F)(F)F)n1)CCc1ccccc1-2
  IC50: > 12.4 µM
  IC90: > 12.4 µM

## O=C(Nc1ccc(OC(F)(F)F)cc1)Nc1cc(-c2cccs2)n[nH]1
  IC50: > 8.96 µM
  IC90: > 8.96 µM

## CCCSc1ccc2c3c(cccc13)C(=O)N(CCc1ccccn1)C2=O
  IC50: > 8.77 µM
  IC90: > 8.77 µM

## CC(NC(=S)Nc1ccc(Oc2ccc(Cl)cc2)cc1)c1ccccc1 (configuration not stated)
  IC50: 7.1 µM
  IC90: > 8.62 µM

## CCO/C(C)=N\OC(=O)c1c(-c2c(Cl)cccc2Cl)noc1C
  IC50: > 9.24 µM
  IC90: > 9.24 µM

## Brc1ccc(Nn2c(-c3ccccc3)nc3c2C2C=CC=CC2C=N3)cc1 (configuration not stated)
  IC50: 3.6 µM
  IC90: 5.07 µM

## CCCCCNS(=O)(=O)c1cccc2c(N)cccc12
  IC50: 3.76 µM
  IC90: > 11.3 µM

## CC(C)c1ccc(N/N=C/c2cc(C#Cc3ccccc3)cs2)cc1
  IC50: > 9.58 µM
  IC90: > 9.58 µM

## CC(C)c1ccc(Nc2ncnc(N)n2)c(Br)c1
  IC50: > 10.7 µM
  IC90: > 10.7 µM

## Cc1cc(I)ccc1N1C(=O)C=CC1=O
  IC50: 5.55 µM
  IC90: > 10.5 µM

## O=C(CSCCCN1CCN(c2cccc(Cl)c2)CC1)N/N=C/c1ccc(Cl)cc1
  IC50: > 7.09 µM
  IC90: > 7.09 µM

## Cn1c(-c2cncc(C#Cc3ccccc3)c2)n[nH]c1=S
  IC50: > 11.3 µM
  IC90: > 11.3 µM

## N=C(N)SCc1csc(-c2ccc(Br)cc2)n1
  IC50: > 9.05 µM
  IC90: > 9.05 µM

## COc1ccccc1NC(=S)NC(c1ccccc1)c1ccccc1
  IC50: > 9.47 µM
  IC90: > 9.47 µM

## CCOC(=O)C1=C(Nc2ccc(OS(=O)(=O)c3ccc(Cl)cc3)cc2)C(=O)N(C(C)(C)C)C1
  IC50: > 6.69 µM
  IC90: > 6.69 µM

## CS(=O)(=O)Nc1ccc(S(=O)(=O)NC23CC4CC(CC(C4)C2)C3)cc1
  IC50: > 8.58 µM
  IC90: > 8.58 µM

## O=C(CSCCCN1CCN(c2cccc(Cl)c2)CC1)N/N=C/c1ccccc1
  IC50: > 7.66 µM
  IC90: > 7.66 µM

## O=c1c2ccccc2c(-c2ccc(F)cc2F)nn1-c1ccccc1
  IC50: > 9.87 µM
  IC90: > 9.87 µM

## O=S(=O)(c1cccs1)n1ccc(-c2ccc3c(c2)CCO3)n1
  IC50: > 9.93 µM
  IC90: > 9.93 µM

## CCOC(=O)C1=C(N)n2c(s/c(=C\c3ccc(OC)cc3)c2=O)=CC1c1ccc(OC)cc1 (configuration not stated)
  IC50: > 7.1 µM
  IC90: > 7.1 µM

## CCCN1CCCC(NC(=S)Nc2ccc(Br)cc2C)C1 (configuration not stated)
  IC50: > 8.91 µM
  IC90: > 8.91 µM

## COCCCNC(=S)N/N=C/c1ccc(Cl)c(Cl)c1
  IC50: > 10.3 µM
  IC90: > 10.3 µM

## c1ccc2cc(-c3csc(Nc4cccc5ccccc45)n3)ccc2c1
  IC50: > 9.36 µM
  IC90: > 9.36 µM

## Cc1ccc(NC(=S)Nc2ccc(Cl)cc2)cc1F
  IC50: > 11.2 µM
  IC90: > 11.2 µM

## CNC(=O)NC(=O)c1sc(SC)c(-c2ccon2)c1C
  IC50: > 10.6 µM
  IC90: > 10.6 µM

## Cc1ccc(Cl)cc1NC(=S)N/N=C\c1cccc2ccccc12
  IC50: 0.805 µM
  IC90: 1.85 µM

## O=C(N/N=C/c1cc(Cl)cc(Cl)c1O)N/N=C/c1cc(Cl)cc(Cl)c1O
  IC50: > 7.57 µM
  IC90: > 7.57 µM

## COc1ccc(OC)c(S(=O)(=O)Nc2ccc(S(=O)(=O)Nc3cc(C(F)(F)F)cc(C(F)(F)F)c3)cc2)c1
  IC50: > 5.65 µM
  IC90: > 5.65 µM

## O=[N+]([O-])c1cc(C(F)(F)F)ccc1N/N=C1\CCCCC1CCS(=O)(=O)c1ccc(Cl)cc1 (configuration not stated)
  IC50: > 6.55 µM
  IC90: > 6.55 µM

## O=C(NCCSCc1ccc2nonc2c1)c1ccc(Cl)cc1Cl
  IC50: > 8.63 µM
  IC90: > 8.63 µM

## S=C(N/N=C\c1cccc2ccccc12)Nc1cccc(Cl)c1Cl
  IC50: > 8.82 µM
  IC90: > 8.82 µM

## CCOC(=O)COc1ccccc1/C=C(/C#N)S(=O)(=O)c1ccccc1
  IC50: > 8.89 µM
  IC90: > 8.89 µM

## CC(C)(C)c1ccc(C(=O)Nc2cc(Cl)cc(Cl)c2)cc1
  IC50: > 10.2 µM
  IC90: > 10.2 µM

## O=C1NC(=O)N2CSCC12 (configuration not stated)
  IC50: > 20.9 µM
  IC90: > 20.9 µM

## COc1cc(C(F)(F)F)nc2ccc(C#CCOC(=O)c3ccccc3Cl)cc12
  IC50: > 7.86 µM
  IC90: > 7.86 µM

## O=C(NNC(=O)c1ccc(CSc2ccc(C(F)(F)F)cn2)o1)c1ccc(Cl)cc1
  IC50: > 7.24 µM
  IC90: > 7.24 µM

## CC(=O)c1ccc(C#Cc2ccccc2)s1
  IC50: > 14.6 µM
  IC90: > 14.6 µM

## O=S(=O)(c1ccc(Br)s1)N1CCC(C(c2ccccc2)c2ccccc2)CC1
  IC50: > 6.93 µM
  IC90: > 6.93 µM

## COc1ccc(CCN2CSC(=S)N(CCc3ccc(OC)c(OC)c3)C2)cc1OC
  IC50: > 7.13 µM
  IC90: > 7.13 µM

## S=C(N/N=C/c1ccc(Cl)cc1)Nc1cc(Cl)ccc1Cl
  IC50: > 9.2 µM
  IC90: > 9.2 µM

## O=C(Nc1ccc(OC(F)(F)F)cc1)N1CCN(c2cc(C(F)(F)F)nc3ccccc23)CC1
  IC50: > 6.81 µM
  IC90: > 6.81 µM

## N#C/C(=C\c1ccccc1Cl)c1nc2ccccc2[nH]1
  IC50: > 11.8 µM
  IC90: > 11.8 µM

## O=C(NNc1cc(C(F)(F)F)nc2ccccc12)Nc1ccc(Cl)cc1
  IC50: > 8.67 µM
  IC90: > 8.67 µM

## O=c1nc(SCc2ccc(Cl)cc2Cl)[nH]c2ccccc12
  IC50: > 9.79 µM
  IC90: > 9.79 µM

## CCc1ccc(-n2nnnc2C/C=N/Nc2ccc(F)cc2)cc1
  IC50: > 10.2 µM
  IC90: > 10.2 µM

## Cc1ccc(N2C(=O)C=CC2=O)cc1C
  IC50: 6.57 µM
  IC90: 12.2 µM

## O=C1N=C(N2CCCCC2)S/C1=C(/C=C(CC(=O)c1ccccc1)c1ccccc1)c1ccccc1
  IC50: > 6.7 µM
  IC90: > 6.7 µM

## ONC(=Nc1cccc(C(F)(F)F)c1)c1ccccc1
  IC50: > 11.8 µM
  IC90: > 11.8 µM

## Cc1cccc(C)c1NC(=O)NCCSCc1c(Cl)cccc1Cl
  IC50: > 8.61 µM
  IC90: > 8.61 µM

## Cc1cc(Cl)ccc1NC(N)=NN
  IC50: > 10.1 µM
  IC90: > 10.1 µM

## Cc1ccc(N2C(=O)C=CC2=O)cc1N1C(=O)C=CC1=O
  IC50: 7.78 µM
  IC90: > 11.7 µM

## CC(C)(C)c1ccc(NC(=S)NCCCCCCNC(=S)Nc2ccc(C(C)(C)C)cc2)cc1
  IC50: > 6.62 µM
  IC90: > 6.62 µM

## O=C(NC(=S)Nc1ccc(F)cc1)c1cnn2c(C(F)(F)F)cc(C(F)(F)F)nc12
  IC50: > 7.31 µM
  IC90: > 7.31 µM

## Cc1[nH]c2ccccc2c1Sc1ccc(Cl)cc1
  IC50: > 12.1 µM
  IC90: > 12.1 µM

## COc1ccc(/C=C2\CN(Cc3ccccc3)CC3(C=NN(CCO)C3c3ccc(OC)cc3)C2)cc1 (configuration not stated)
  IC50: > 6.63 µM
  IC90: > 6.63 µM

## O=C(Nc1ccc(Cl)cc1)O/N=C\c1ccc(C#Cc2ccccc2)cc1
  IC50: > 8.8 µM
  IC90: > 8.8 µM

## NC(=S)CCOC1CCN(Cc2ccccc2)CC1
  IC50: > 11.9 µM
  IC90: > 11.9 µM

## CSc1sc(Cl)c2c1/C(=N\O)CC(C)(C)C2
  IC50: > 12 µM
  IC90: > 12 µM

## Clc1ccc(N/N=C/c2sccc2Oc2ccccc2)cc1
  IC50: > 10 µM
  IC90: > 10 µM

## N#Cc1c(OCC(F)(F)F)ccc(Sc2ccc(C(F)(F)F)cn2)c1OCC(F)(F)F
  IC50: 5.5 µM
  IC90: > 6.93 µM

## c1ccn(C2CCNCC2)c1
  IC50: > 22 µM
  IC90: > 22 µM

## CCCc1cc(=O)oc2cc(OCC(=O)NNC(=S)NC(=O)c3ccc(Cl)cc3)ccc12
  IC50: > 6.96 µM
  IC90: > 6.96 µM

## O=C(CSc1ccc(C(F)(F)F)cn1)Nc1cc(C(F)(F)F)cc(C(F)(F)F)c1
  IC50: > 7.36 µM
  IC90: > 7.36 µM

## C=S(NC(=O)Nc1ccc(Cl)cc1)c1sc(Cl)c2c1C(=O)CCC2 (configuration not stated)
  IC50: > 8.22 µM
  IC90: > 8.22 µM

## CNc1ncnc(NNC(=O)Nc2ccc(OC(F)(F)F)cc2)c1[N+](=O)[O-]
  IC50: 3.31 µM
  IC90: > 8.52 µM

## CC(=O)Nc1ccc(S(=O)(=O)Oc2ccc(C)cc2[N+](=O)[O-])cc1
  IC50: > 9.42 µM
  IC90: > 9.42 µM

## COc1cc(/C=N/NC(=S)Nc2cc(Cl)ccc2Cl)ccc1OS(=O)(=O)c1ccc(C)cc1
  IC50: > 6.29 µM
  IC90: > 6.29 µM

## Cc1nc2c(/C(N)=N/OCc3cccc(Cl)c3)cnn2c(C)c1C
  IC50: > 9.6 µM
  IC90: > 9.6 µM

## CC(C)(C)c1ccc(C(=O)NNC(=O)c2ccc(CSc3ccc(C(F)(F)F)cn3)o2)cc1
  IC50: > 6.91 µM
  IC90: > 6.91 µM

## COc1ccccc1C1CCN(c2ccc([N+](=O)[O-])c(C(F)(F)F)c2)CC1
  IC50: > 8.68 µM
  IC90: > 8.68 µM

## CCCc1c(Cc2c(F)cccc2Cl)c(=O)oc2cc(OC(=O)c3ccccc3Cl)ccc12
  IC50: > 6.8 µM
  IC90: > 6.8 µM

## O=C1OC(CC(=O)c2csc3ccccc23)c2ccccc21 (configuration not stated)
  IC50: 6.16 µM
  IC90: 8.63 µM

## O=C1N(CN2CCCCC2)c2ccc(Br)cc2C12OCCO2
  IC50: > 8.99 µM
  IC90: > 8.99 µM

## CC(C)(C)c1ccc(C(=O)Nc2ccc(Oc3ccc(Cl)cc3)cc2)cc1
  IC50: > 8.69 µM
  IC90: > 8.69 µM

## N#C/C(=C\C=C\c1ccccc1)c1cccc(Cl)c1
  IC50: > 12.4 µM
  IC90: > 12.4 µM

## O=c1c(Cl)c2[nH]c3ccccc3nc-2c2ccccc12
  IC50: > 11.8 µM
  IC90: > 11.8 µM

## O=S1(=O)CC(S(=O)(=O)c2cccs2)c2ccccc21 (configuration not stated)
  IC50: > 10.5 µM
  IC90: > 10.5 µM

## COc1cc(C)c2c(c1)C=CC1C2CCC2(C)C(O)CCC12 (configuration not stated)
  IC50: > 11.1 µM
  IC90: > 11.1 µM

## O=C(NCCSCc1csc2ccc(Cl)cc12)Nc1ccc(Cl)cc1
  IC50: > 8.02 µM
  IC90: > 8.02 µM

## Cc1ccc(N2C(=N)C(=S)N(c3ccc(Cl)c(Cl)c3)C2=O)cc1
  IC50: > 9.06 µM
  IC90: > 9.06 µM

## O=C1C=CC(=O)N1c1ccccc1Cl
  IC50: 6.18 µM
  IC90: > 15.9 µM

## COc1ccccc1N1C(=O)C=CC1=O
  IC50: > 16.2 µM
  IC90: > 16.2 µM

## O=C1C=CC(=O)N1c1cccc(Cl)c1
  IC50: > 15.9 µM
  IC90: > 15.9 µM

## NC(=O)N/N=C/c1ccc(Cl)cc1
  IC50: > 16.7 µM
  IC90: > 16.7 µM

## N#Cc1cnc(S)nc1N
  IC50: > 21.7 µM
  IC90: > 21.7 µM

## S=C(NCc1ccc(Cl)c(Cl)c1)Nc1cccnc1
  IC50: > 10.6 µM
  IC90: > 10.6 µM
